Results published in US5344841A, “Bis-(hydroxylakylamino)-anthraquinone inhibitors of protein kinase C” (Sphinx Pharmaceuticals Corporation, priority 1992, dated 1994).

What was measured:
protein kinase C = assay: Protein kinase C (PKC) inhibition assay (histone H1 phosphorylation); type: biochemical; conditions: rat brain PKC, histone H1 substrate
Description: The protein kinase C (PKC) assay is designed to duplicated the in vivo conditions required for protein kinase C function. Therefore, pH, salt and cofactor concentrations are similar to physiologic levels. Histone H1 (lysine rich) is used in the assay as the phosphorylation acceptor protein because it is readily available and serves as a good substrate for protein kinase C. The enzyme is prepared from rat brain and is purified to apparent homogeneity as determined by a single band on silver stained SDS-polyacrylamide. Studies on the mechanism of regulation of protein kinase C by phospholipids, DAG and Ca^+2 have been hampered by the physical properties of the lipid cofactors. In the screening assay, phosphatidylserine (PS) and DAG are cosonicated to form unilamellar and multilamellar vesicles. The concentration of lipids in the assay are suboptimal to maximize the detection potential of the assay for inhibitors. […] The assay is started with the addition of enzyme and stopped after 10 min by the addition of 25% trichloroacetic acid (TCA) and 1.0 mg/ml bovine serum albumin (BSA). The radioactive histone product is retained and washed on glass fiber filters that allow the unreacted ^32 P-ATP to pass through. The amount of phosphorylation is determined by the radioactivity measured in a scintillation counter. Controls are included in every assay to measure background activity in the absence of enzyme, activity in the absence of lipids and the maximum enzyme activity with saturating levels of the activator lipids.

[1] = system: 8226/ADR adriamycin resistant line of 8226 cells; assay: Human tumor growth inhibition, 3H-thymidine incorporation, 8226/ADR; type: cell-based; conditions: 8226/ADR vs 8226
Excerpt: (§1) MCF-7 a human breast tumor cell line, and MCF-7/ADR an adriamycin resistant line of MCF-7 cells were obtained from the National Cancer Institute, Frederick, Md. NHEK a human keratinocyte cell line was obtained from Clonetic Corp., San Diego, Calif. 8226 a human myeloma cell line, 8226/MT a Mitoxantrone resistant line of 8226 cells, and 8226 ADR an adriamycin resistant line of 8226 cells were obtained from Dr. Bill Dalton, Arizona Cancer Center, Tuscon, Ariz.
(§2) Human tumor cells are trypsinized (0.05% trypsin, GIBCO), counted with a hemacytometer and seeded at a concentration of 10,000 cells/well in a 96 well microtiter plate. After allowing cells to attach to the surface overnight, the culture medium is aspirated and replaced with 100 μl of fresh medium. Test agents are diluted to determine dose response at 2× final concentration and added in quadruplicate at 100 μl/well to bring the total volume of each well to 200 μl. The microtiter plate is then incubated at 37° C. 5% CO2 overnight (18-24 hrs) before ^3 H-thymidine is added at a concentration of 0.5 μCi/well in 50 μl culture medium. The plate is incubated again for 4 hrs under the same conditions as above. Supernatant is then aspirated and 50 μl trypsin (0.05%, GIBCO) is added to each well. Cells are checked microscopically to determine detachment from surfaces, and plates are then harvested with a cell harvester (PHD, Cambridge Technology, Inc.) Filter papers corresponding to wells are placed in scintillation vials and counted to determine the amount of ^3 H-thymidine incorporated by the cells. Test agent response is compared to a positive control of cell wells with culture media only to determine the IC50. IC50 is the concentration of test compound required to inhibit fifty percent of the incorporation of ^3 H-thymidine into proliferating cells not exposed to test agent. Uptake of ^3 H-thymidine is a standard test for measuring the metabolism of cells. Cells which are actively proliferating take up ^3 H-thymidine, whereas cells that are not proliferating take up ^3 H-thymidine at much slower rates or not at all. Test agents that inhibit the uptake of ^3 H-thymidine thus slow the growth of cells.

[2] = system: MCF-7/ADR adriamycin resistant line of MCF-7 cells; assay: Human tumor growth inhibition, 3H-thymidine incorporation, MCF-7/ADR; type: cell-based; conditions: NCI/ADR-RES, 3H-thymidine uptake
P388 murine leukemia = assay: P388 leukemia tumor assay in mice, survival time; type: in vivo, mouse
Excerpt: P388 Leukemia Tumors. Mice were young adult, pathogen-free, BALA/c×DBA/2 F1 (i.e., CD2F1) females purchased from Charles River Laboratories. The tumor line was the P388 murine leukemia, ascites form, obtained from the National Cancer Institute (NCI) Tumor Repository (Frederick, Md.). The tumor was maintained in the serial passage in mice by periodic intraperitoneal (ip) implantation. For this experiment, 10^6 hemacytometer-counted P388 murine leukemia cells were implanted ip into mice on Day 0. The mice were randomized into one untreated control group of 20 and 15 test groups of six mice each. All drug treatment was delivered ip on the basis of the average body weight of each group. […] Body weights were recorded on Days 1, 5, 9, 11, and 18. Deaths were recorded daily. Dying mice were necropsied, and the presence or absence of ascites or splenomegaly was recorded. Drug effectiveness was assessed on the basis of the survival time. Results were expressed as a percentage of the control survival time (Survival Time=T/C×100%; T=test animals; C=control animals). The criterion for effectiveness was determined by: T/C×100≥125 percent.

[3] = system: MCF-7/ADR adriamycin resistant line of MCF-7 cells; assay: Human tumor growth inhibition, 3H-thymidine incorporation, MCF-7/ADR; type: cell-based; conditions: MCF-7/ADR vs MCF-7
Excerpt: as §1, §2

[4] = system: 8226 human myeloma cell line; assay: Human tumor growth inhibition, 3H-thymidine incorporation, 8226; type: cell-based; conditions: 3H-thymidine uptake, read-out: IC50 8226
Excerpt: as §1, §2

[5] = system: 8226/ADR adriamycin resistant line of 8226 cells; assay: Human tumor growth inhibition, 3H-thymidine incorporation, 8226/ADR; type: cell-based; conditions: 3H-thymidine uptake
[6] = system: MCF-7 human breast tumor cell line; assay: Human tumor growth inhibition, 3H-thymidine incorporation, MCF-7; type: cell-based; conditions: 3H-thymidine uptake; read-out: IC50 MCF-7
Excerpt: as §1, §2

[7] = system: MCF-7 human mammary carcinoma xenografts; assay: MCF-7 human mammary carcinoma xenografts in athymic nude mice; type: in vivo, mouse (human tumor xenograft); conditions: FIG. 4

`CCN(CC)CC(O)CNc1ccc(NCC2CO2)c2c1C(=O)c1ccccc1C2=O` (stereo not drawn) [Compound 1b-1, 1-(3-diethylamino-2-hydroxypropylamino)-4-(2,3-epoxypropylamino)-9, 10-anthracenedione] was tested, and the IC50 (protein kinase C) was 110000 nM, the “Resistance Ratio (8226/ADR)” value [1] was 0.26 and the IC50 [2] was 60 nM. The “% T/C p388 Leukemia” value (P388 murine leukemia; 16 mg/kg, Q4D × 3, ip, survival time) was 140%, the “survival time of mice (in words)” value (P388 murine leukemia; all dosages and schedules) was “effectively increased the survival time” and the “Resistance Ratio (IC50 MCF-7/ADR to IC50 MCF-7)” value [3] was 2.4. The IC50 [4] was 60 nM, the IC50 [5] was 16 nM and the IC50 [6] was 25 nM. For the same molecule, the “median tumor weight vs control mice (in words)” value ([7]; at stabilization) was “significantly lower than the weight of the control mice”, the “day at which tumor growth was stabilized” value ([7]; iv, once every four days, five injections) was roughly 30 days and the “day until which median tumor weight remained stable” value ([7]; then tumor regrowth) was roughly 38 days.
